Source: patent US10149852B2, “Use of sodium channel blockers for the treatment of neuropathic pain developing as a consequence of chemotherapy” (priority 2006, dated 2018)
Several values for one entry are separate records, joined by “and”; a condition that tells them apart may be missing. Equal values may be shown once. Entries after “also recorded” stand apart in the source; their conditions may differ.

Experiments:
[1] = tested on: paclitaxel induced paw allodynia
[2] = tested on: paclitaxel induced orofacial allodynia
[3] = in vivo; cited from earlier work
[4] = tested on: paclitaxel induced paw hyperalgesia
[5] = tested on: paclitaxel-induced painful peripheral neuropathy; design: species or system CD-1 mice; settings: mouse, in vivo, sc
[6] = tested on: paclitaxel-induced cold allodynia
[7] = tested on: Chemotherapy Induced Neuropathic Pain (CINP); design: species or system Human Subjects; settings: in vivo
[8] = design: species or system Human Subjects; settings: in vivo
[9] = tested on: paclitaxel-induced thermal hyperalgesia
[10] = tested on: paclitaxel-induced mechanical allodynia
[11] = paclitaxel 2 mg/kg i.p. once daily 5 days
[12] = paclitaxel 1 mg/kg i.p. days 1, 3, 5, 7, rats

For “Octahydro-12-(Hydroxymethyl)-2-imino-5,9,7,10a-dimethano-10aH-[1,3]dioxocino[6,5-d]pyrimidine-4,7,10,11,12-pentol [TTX]”, the “effect of a single dose on allodynia in the sciatic territory” value ([1]; rat, in vivo, sc) was “partial but significant decrease”, the “prevention of development of allodynia in the paw” value ([1]; rat, in vivo, sc) was “able to prevent the development” and the “effect of a single dose on allodynia in the trigeminal territory” value ([2]; rat, in vivo, sc) was “partial but significant decrease”. For the same compound, the “prevention of development of allodynia in the orofacial region” value ([2]; rat, in vivo, sc) was “able to prevent the development”, the “safety profile of the doses” value [3] was “acceptable safety profile” and the “effect of a single dose on paw hyperalgesia” value ([4]; rat, in vivo, sc) was “did not significantly reduce”. The “prevention of development of hyperalgesia in the paw” value ([4]; rat, in vivo, sc) was “able to prevent the development”, the “analgesic effects in the model of neuropathic pain” value [5] was “clear analgesic effects” and the “effect on expression of paclitaxel-induced cold allodynia” value ([6]; mouse, in vivo) was “inhibited the expression”. The “days with statistically significant difference vs paclitaxel+saline, duration of licking/biting” value ([6]; mouse, in vivo, sc) was “days 10 and 14”, the “days with statistically significant difference vs paclitaxel+saline, frequency of licking/biting” value ([6]; mouse, in vivo, sc) was “days 7, 10 and 14” and the “effect on development of paclitaxel-induced cold allodynia (two variables)” value ([6]; mouse, in vivo, sc) was “did not significantly affect”. For the same compound, the “effect significantly different from saline, frequency of licking/biting” value ([6]; mouse, in vivo, sc) was “only in the animals treated with TTX 6 μg/kg”, the “time after injection with effect significantly different from saline, duration of licking/biting” value ([6]; mouse, in vivo, sc) was 1 h and the “Responders, 30% reduction in average NPRS score from baseline to any 10 consecutive days: No, number of subjects” value [7] was 17 (68.0%) and 14 (58.3%) and 15 (60.0%) and 11 (42.3%). For the same compound, the “Responders, 30% reduction in average NPRS score from baseline to any 10 consecutive days: No, percent” value [7] was 17 (68.0%) and 14 (58.3%) and 15 (60.0%) and 11 (42.3%), the “Responders, 30% reduction in average NPRS score from baseline to any week: No, number of subjects” value [7] was 16 (64.0%) and 13 (54.2%) and 15 (60.0%) and 11 (42.3%) and the “Responders, 30% reduction in average NPRS score from baseline to any week: No, percent” value [7] was 16 (64.0%) and 13 (54.2%) and 15 (60.0%) and 11 (42.3%). For the same compound, the “Responders, 30% reduction in average NPRS score from baseline to any week: Yes, number of subjects” value [7] was 9 (36.0%) and 11 (45.8%) and 10 (40.0%) and 15 (57.7%), the “Nervous system disorders, number of subjects” value [8] was 13 and 16 and 17 and 20 and the “Number of Subjects with at least 1 AE” value [8] was 21 and 22 and 20 and 24. For the same compound, the “Paresthesia, number of subjects” value [8] was 5 and 7, the “grade 4 AEs” value [8] was “no grade 4 AEs” and the “number of grade 3 AEs” value [8] was “four and seven”. The “number of patients with serious adverse effects (SAEs)” value [8] was “Three”, the “number of subjects with grade 3 AE” value [8] was “Four” and the “relation of the SAEs to TTX” value [8] was “two unrelated and one unlikely related”. The “severity of most AEs” value [8] was “grade 1 or 2; also recorded: mild or moderate”, the “severity of nervous system AEs” value [8] was “grade 1 or 2 save for one event of grade 3 paresthesia” and the “Hypesthesia oral, number of subjects” value ([8]; po) was 5 and 7 and 6 and 10. The “Oral paresthesia (most common AE), number of patients of 125” value ([8]; po) was 37, the “Oral paresthesia (most common AE), percent” value ([8]; po) was 29.6% and the “dose relation of Oral Paresthesia” value ([8]; po) was “increasing trend in relation to increasing dose”. For the same compound, the “oral hypesthesia, number of patients of 125” value ([8]; po) was 31 and the “oral hypesthesia, percent” value ([8]; po) was 24.8%.

In the case of `CC(=O)O[C@H]1C(=O)[C@@]2(C)[C@H]([C@H](OC(=O)c3ccccc3)[C@]3(O)C[C@H](OC(=O)[C@H](O)[C@@H](NC(=O)c4ccccc4)c4ccccc4)C(C)=C1C3(C)C)[C@]1(OC(C)=O)CO[C@@H]1C[C@@H]2O` [paclitaxel, Paclitaxel, reference compound], the “time of maximal thermal hyperalgesia after the first injection” value [9, 11] is reported as 7 days, the “paw withdrawal latency in the plantar test vs pre-treatment day” value ([9]; paclitaxel 2 mg/kg i.p. once daily 5 days, all post-treatment days) is reported as “significantly reduced” and the “animals that did not develop thermal hyperalgesia on day 7” value ([9]; paclitaxel-treated mice) is reported as “Around 9%”. The “mechanical threshold (paw) vs vehicle-treated group” value [1, 12] was “significantly reduced”, the “mechanical threshold (orofacial) vs vehicle-treated group” value [2, 12] was “significantly reduced” and the “thermal latency vs vehicle-treated group” value [4, 12] was “significantly reduced”. For the same compound, the “induction of mechanical allodynia (threshold force, Von Frey test)” value ([10]; paclitaxel 2 mg/kg i.p. during 5 days, day 10) was “induced mechanical allodynia”, the “animals showing a reduction of the mechanical threshold” value ([10]; paclitaxel-treated mice) was 96% and the “animals with increased time licking/biting (paclitaxel-responder animals)” value [6, 11] was 67%. The “time of maximal cold allodynia after the first injection” value [6, 11] was 10 to 14 days.
